In patent US20130296311A1, “INHIBITORS OF HCV NS5A” (PRESIDIO PHARMACEUTICALS, INC., priority 2010, published 2013):

Each molecule was assayed on HCV 1b_Huh-Luc/Neo-ET cell line persistently expressing a bicistronic genotype 1b replicon in Huh 7 cells (assay: HCV replicon assay (luciferase readout, 72 h)). Conditions: Hepatitis C virus, Huh-7, 72 h, read-out: Inhibition of HCV.
Assay type: cell-based, HCV genotype 1b
In short: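 EC50 values come from a four-parameter fit of luciferase signal as % of untreated control, repeated across several determinations. The signal is from the HCV 1b_Huh-Luc/Neo-ET replicon line, dosed in triplicate one day post-plating and incubated 72 h before Bright-Glo readout.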

SMILES | EC50 [nM]
COC(=O)N[C@H](C(=O)N1CCC[C@H]1c1nc2ccc(C#Cc3ccc4nc([C@@H]5CCCN5C(=O)[C@@H](NC(=O)OC)C(C)C)[nH]c4c3)cc2[nH]1)C(C)C [Compound 852] | < 1

Same assay, conditions: Hepatitis C virus, Huh-7, 72 h, read-out: Inhibition of HCV genotype 1b

SMILES | EC50 [nM]
COC(=O)N[C@@H](C(=O)N1CCC[C@H]1c1ncc(C#Cc2ccc(-c3ccc(-c4cnc([C@@H]5CCCN5C(=O)[C@@H](c5ccccc5)N(C)C)[nH]4)cc3)cc2)[nH]1)c1ccccc1 [Compound 755] | < 1
COC(=O)N[C@@H](C(=O)N1CCC[C@H]1c1ncc(-c2ccc(C#Cc3ccc(-c4cnc([C@@H]5CCCN5C(=O)[C@H](NC(=O)OC)c5ccccc5)[nH]4)cc3)cc2)[nH]1)c1ccccc1 [Compound 156] | < 1
COC(=O)N[C@H](C(=O)N[C@@H](C)c1ncc(-c2ccc(C#Cc3ccc(-c4cnc([C@@H]5CCCN5C(=O)[C@@H](C(C)C)N(C)C)[nH]4)cc3)cc2)[nH]1)C(C)C [Compound 964] | 1 to 9.9
COC(=O)N[C@@H](C(=O)N1CCC[C@H]1c1ncc(-c2ccc(C#Cc3ccc(-c4cnc([C@@H]5CCCN5C(=O)[C@H](NC(=O)N5CC[C@H](F)C5)c5ccccc5)[nH]4)cc3)cc2)[nH]1)c1ccccc1 [Compound 270] | < 1
COC(=O)N[C@H](C(=O)N1CCSC[C@H]1c1ncc(-c2ccc(C#Cc3ccc4nc([C@@H]5CCCN5C(=O)[C@@H](NC(=O)OC)C(C)C)[nH]c4c3)cc2)[nH]1)C(C)C [Compound 1062] | < 1
COC(=O)N[C@@H](C(=O)N1CCC[C@H]1C(=O)Nc1ccc(C#Cc2ccc(-c3cnc([C@@H]4CCCN4C(=O)[C@H](NC(=O)OC)c4ccccc4)[nH]3)cc2)cc1)c1ccccc1 [Compound 171] | < 1
COC(=O)N[C@@H](C(=O)N1CCC[C@H]1c1ncc(C#Cc2ccc(C#Cc3cnc([C@@H]4CCCN4C(=O)[C@@H](c4ccccc4)N4CCCC4)[nH]3)cc2)[nH]1)c1ccccc1 [Compound 311] | < 1
O=C(N[C@@H](C(=O)N1CCC[C@H]1c1ncc(-c2ccc(C#Cc3ccc(-c4cnc([C@@H]5CCCN5C(=O)[C@H](NC(=O)N5CCOCC5)c5ccccc5)[nH]4)cc3)cc2)[nH]1)c1ccccc1)N1CCOCC1 [Compound 248] | < 1
O=C(N[C@@H](C(=O)N1CCC[C@H]1C(=O)NCc1ccc(C#Cc2cnc([C@@H]3CCCN3C(=O)[C@H](NC(=O)C3CC3)c3ccccc3)[nH]2)cc1)c1ccccc1)C1CC1 [Compound 121] | < 1
CC(C)(NC(=O)C1CC1)C(=O)N1CCC[C@H]1c1ncc(C#Cc2ccc(-c3cnc([C@@H]4CCCN4C(=O)C(C)(C)NC(=O)C4CC4)[nH]3)cc2)[nH]1 [Compound 108] | > 1000
CC(C)(C)OC(=O)N1CCC[C@H]1c1ncc(C#Cc2ccc(-c3cnc([C@@H]4CCCN4C(=O)OC(C)(C)C)[nH]3)cc2)[nH]1 [Compound 101] | 10 to 999
CC(C)(C)OC(=O)N[C@@H](C(=O)N1CCC[C@H]1CNC(=O)c1ccc(C#Cc2ccc(-c3cnc([C@@H]4CCCN4C(=O)[C@H](NC(=O)OC(C)(C)C)c4ccccc4)[nH]3)cc2)cc1)c1ccccc1 [Compound 192] | 1 to 9.9
COC(=O)N[C@H](C(=O)N[C@@H](C)c1ncc(-c2ccc(C#Cc3ccc(-c4cnc([C@@H]5CCCN5C(=O)[C@@H](c5ccccc5)N(C)C)[nH]4)cc3)cc2)[nH]1)C(C)C [Compound 965] | < 1
O=S(=O)(Cc1ccccc1)N1CCC[C@H]1c1ncc(-c2ccc(C#Cc3ccc4nc([C@@H]5CCCN5S(=O)(=O)Cc5ccccc5)[nH]c4c3)cc2)[nH]1 [Compound 1042] | > 1000
C[C@@H](NC(=O)C1CC1)C(=O)N1CCC[C@H]1c1ncc(-c2ccc(C#Cc3ccc(-c4cnc([C@@H]5CCCN5C(=O)[C@@H](C)NC(=O)C5CC5)[nH]4)cc3)cc2)[nH]1 [Compound 154] | 1 to 9.9
O=C(N[C@@H](C(=O)N1CCC[C@H]1c1ncc(-c2ccc(C#Cc3ccc(-c4cnc([C@@H]5CCCN5C(=O)[C@H](NC(=O)C5CC5)c5ccccc5)[nH]4)cc3)cc2)[nH]1)c1ccccc1)C1CC1 [Compound 153] | < 1
COC(=O)N[C@@H](C(=O)N1CCC[C@H]1c1ncc(-c2ccc(C#Cc3ccc(-c4cnc([C@@H]5CCCN5C(=O)[C@H](NC(=O)N5CCCCC5)c5ccccc5)[nH]4)cc3)cc2)[nH]1)c1ccccc1 [Compound 242] | < 1

SMILES | EC50 [nM]
COC(=O)N[C@H](C(=O)N1CCC[C@H]1c1nc(-c2ccc3cc(C#Cc4cnc([C@@H]5CCCN5C(=O)[C@H](NC(=O)OC)c5ccccc5)[nH]4)ccc3c2)c[nH]1)C(C)C [Compound 1077] | < 1
COC(=O)N[C@H](C(=O)N1CCC[C@H]1c1ncc(C#Cc2ccc(-c3ccc4nc([C@@H]5CCCN5C(=O)[C@H](NC(=O)OC)c5ccccc5)[nH]c4c3)nc2)[nH]1)C(C)C [Compound 1087] | < 1
COC(=O)N[C@H](C(=O)N1CCC[C@H]1c1ncc(-c2ccc(C#Cc3ccc4nc([C@@H]5CCCN5C(=O)[C@@H](NC(=O)OC)[C@@H](C)O)[nH]c4c3)cc2)[nH]1)[C@@H](C)O [Compound 863] | < 1
CO[C@@H](C(=O)N1CCC[C@H]1c1ncc(-c2ccc(C#Cc3ccc(-c4cnc([C@@H]5CCCN5C(=O)[C@H](OC)c5ccccc5)[nH]4)cc3)cc2)[nH]1)c1ccccc1 [Compound 172] | < 1
COC(=O)N[C@@H](C(=O)N1CCC[C@H]1c1ncc(-c2ccc(C#Cc3ccc(-c4cnc([C@@H]5CCCN5C(=O)[C@H](NC(=O)N5CCC(C)(O)CC5)c5ccccc5)[nH]4)cc3)cc2)[nH]1)c1ccccc1 [Compound 273] | < 1
COC(=O)N[C@H](C(=O)N1CCC[C@H]1c1ncc(-c2ccc(C#Cc3ccc(-c4cnc([C@@H]5CCCN5C(=O)[C@@H](NC(=O)OC)[C@@H](C)O)[nH]4)cc3)cc2)[nH]1)C(C)C [Compound 971] | < 1
CC(C)[C@@H](NC(=O)C1CC1)C(=O)N1CCC[C@H]1C(=O)NCCc1ccc(C#Cc2cnc([C@@H]3CCCN3C(=O)[C@H](NC(=O)C3CC3)C(C)C)[nH]2)cc1 [Compound 127] | 10 to 999
COC(=O)NC(C(=O)N1CCC[C@H]1c1nc2ccc(C#Cc3ccc4cc(-c5cnc([C@@H]6CCCN6C(=O)[C@@H](NC(=O)OC)C(C)C)[nH]5)ccc4n3)cc2[nH]1)C(C)C (some centres unmarked) [Compound 1107] | < 1
COC(=O)N[C@H](C(=O)N1CCC[C@H]1c1ncc(C#Cc2ccc3cc(-c4cnc([C@@H]5CCCN5C(=O)[C@@H](NC(=O)OC)C5CCOCC5)[nH]4)ccc3c2)[nH]1)C1CCOCC1 [Compound 1080] | < 1
COC(=O)N[C@H](C(=O)N1CCC[C@H]1c1ncc(-c2ccc(C#Cc3ccc4nc([C@@H]5CCCN5C(=O)[C@H](NC(=O)OC)C(C)C)[nH]c4c3)cc2)[nH]1)C(C)C [Compound 1054] | < 1
CC(C)OC(=O)N[C@@H](C(=O)N1CCC[C@H]1c1ncc(-c2ccc(C#Cc3ccc(-c4cnc([C@@H]5CCCN5C(=O)[C@H](NC(=O)OC(C)C)c5ccccc5)[nH]4)cc3)cc2)[nH]1)c1ccccc1 [Compound 227] | < 1
O=C(N[C@@H](C(=O)N1CCC[C@H]1c1ncc(C#Cc2ccc(C#Cc3cnc([C@@H]4CCCN4C(=O)[C@H](NC(=O)N4CCOCC4)c4ccccc4)[nH]3)cc2)[nH]1)c1ccccc1)N1CCOCC1 [Compound 309] | < 1
COC[C@H]1CCCN1C(=O)N[C@@H](C(=O)N1CCC[C@H]1c1ncc(-c2ccc(C#Cc3ccc(-c4cnc([C@@H]5CCCN5C(=O)[C@H](NC(=O)OC)c5ccccc5)[nH]4)cc3)cc2)[nH]1)c1ccccc1 [Compound 259] | < 1
CC(C)[C@@H](NC(=O)OC(C)(C)C)C(=O)N1CCC[C@H]1c1ncc(C#Cc2ccc(C#Cc3cnc([C@@H]4CCCN4C(=O)[C@H](NC(=O)OC(C)(C)C)C(C)C)[nH]3)cc2)[nH]1 [Compound 301] | > 1000
CC1(O)CCN(C(=O)N[C@@H](C(=O)N2CCC[C@H]2c2ncc(C#Cc3ccc(-c4ccc(-c5cnc([C@@H]6CCCN6C(=O)[C@H](NC(=O)N6CCC(C)(O)CC6)c6ccccc6)[nH]5)cc4)cc3)[nH]2)c2ccccc2)CC1 [Compound 870] | < 1
COC(=O)NC1(C(=O)N2CCC[C@H]2c2ncc(-c3ccc(C#Cc4ccc5nc([C@@H]6CCCN6C(=O)C6(NC(=O)OC)CC6)[nH]c5c4)cc3)[nH]2)CC1 [Compound 1043] | 10 to 999

Same assay, conditions: Hepatitis C virus, Huh-7, read-out: Inhibition of HCV genotype 1b

SMILES | EC50 [nM]
COC(=O)NC(C(=O)N1CCC[C@H]1c1nc2ccc(C#Cc3ccc4cc(-c5cnc([C@@H]6CCCN6C(=O)[C@H](NC(=O)OC6CCOCC6)c6ccccc6)[nH]5)ccc4n3)cc2[nH]1)C(C)C (some centres unmarked) [Compound 1291] | < 1
COC(=O)N[C@@H](C(=O)N1CCC[C@H]1c1ncc(-c2ccc(C#Cc3ccc(-c4cnc([C@@H]5CCCN5C(=O)[C@H](NC(=O)OC)c5ccccc5)[nH]4)cc3C#N)cc2)[nH]1)c1ccccc1 [Compound 1203] | < 1
CC[C@H](C)[C@H](NC(=O)OC)C(=O)N1CCC[C@H]1c1ncc(-c2ccc(C#Cc3ccc4nc([C@@H]5CCCN5C(=O)[C@@H](NC(=O)OC)[C@@H](C)OC)[nH]c4c3)cc2)[nH]1 [Compound 1248] | < 1
COC(=O)N[C@H](C(=O)N1CCC[C@H]1c1ncc(-c2ccc(C#Cc3ccc(-c4cnc([C@@H]5CCCN5C(=O)[C@H](NC(=O)OC)c5ccsc5)[nH]4)cc3)cc2)[nH]1)[C@@H](C)OC [Compound 1212] | < 1
COC(=O)N[C@H](C(=O)N1CCN(C(=O)OC)C[C@H]1c1ncc(-c2ccc(C#Cc3ccc(-c4cnc([C@@H]5CCCN5C(=O)[C@H](NC(=O)OC)c5ccccc5)[nH]4)cc3)cc2)[nH]1)C(C)C [Compound 1206] | < 1
COC(=O)N[C@H](C(=O)N1CCC[C@H]1c1nc2c([nH]1)-c1ccc(C#Cc3ccc4nc([C@@H]5CCCN5C(=O)[C@H](NC(=O)OC)c5ccccc5)[nH]c4c3)cc1CCC2)C(C)C [Compound 1281] | < 1
CC[C@H](C)[C@H](NC(=O)OC)C(=O)N1CCC[C@H]1c1ncc(-c2ccc3cc(C#Cc4[nH]c([C@@H]5CCCN5C(=O)[C@@H](NC(=O)OC)[C@@H](C)OC)nc4C(F)(F)F)ccc3c2)[nH]1 [Compound 1259] | < 1
